The values below come from publication PMC2665027 (Biochemistry, 2009).

Substitutions are numbered along the chain they refer to. Where “and” joins values, the source holds several entries; their conditions need not be identical. Equal entries are not always repeated.

Assay [1] deals with wild-type human arginase I. Conditions: isothermal titration calorimetry; ref [30] and [48]; cited from earlier work. A general note: Isothermal titration calorimetry measures the heat released or taken up as one component is titrated into another.
In assay [2] the target is T1, D183N human arginase I (Homo sapiens, UniProt P05089, D183N).
T1 sequence (P05089 1-322 D183N): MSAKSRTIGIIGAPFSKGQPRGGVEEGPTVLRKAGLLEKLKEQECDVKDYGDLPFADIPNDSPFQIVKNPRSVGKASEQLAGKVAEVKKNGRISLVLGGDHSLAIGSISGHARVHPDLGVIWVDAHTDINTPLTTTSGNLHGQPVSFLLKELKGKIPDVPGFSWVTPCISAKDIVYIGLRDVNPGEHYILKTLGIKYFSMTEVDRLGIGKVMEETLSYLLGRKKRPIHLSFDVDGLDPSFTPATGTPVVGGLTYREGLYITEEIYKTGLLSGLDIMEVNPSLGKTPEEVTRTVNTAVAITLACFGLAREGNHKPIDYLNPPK
Put plainly: Isothermal titration calorimetry, D183N human arginase I. Format: binding.

Assay [3] deals with T2, D183A human arginase I (Homo sapiens, UniProt P05089, D183A).
T2 sequence (P05089 1-322 D183A): T1 sequence (P05089 1-322 D183N) with N183A
Put plainly: Isothermal titration calorimetry, D183A human arginase I. It counts as binding.

The target of assay [4] is T1, D183N human arginase I. Put plainly: 14C-urea radioactive arginase assay, D183N human arginase I. Conditions: substrate L-arginine; pH 9.0, room temperature. Format: biochemical.
Assay [5] relates to wild-type human arginase I. As to conditions: substrate L-arginine; ref [30] and [48]; cited from earlier work.
The target in assay [6] is T2, D183A human arginase I. Conditions: substrate L-arginine; pH 9.0, room temperature.
The subject of assay [7] is proclavaminic acid amidinohydrolase. As to conditions: ref [54]; cited from earlier work.

Usually Kd stands for the equilibrium constant for the complex coming apart. On to `N[C@@H](CCCCB(O)O)C(=O)O` [ABH, 2(S)-amino-6-boronohexanoic acid], for which the Kd in assay [1] was 5 nM; at D183N human arginase I [2], 147 nM; on D183A human arginase I [3], 7000 nM. Further, the “inhibitor binding affinity weakened relative to wild-type” value at D183N human arginase I [2] (D183N vs wild-type human arginase I, calorimetric Kd) was 29 fold; on D183A human arginase I [3] (D183A vs wild-type human arginase I, calorimetric Kd) it was ~ 1400 fold and 1400 fold.

As a reminder, the Km is the concentration of substrate that gives half-maximal velocity. A word on the kcat: it is the maximal rate divided by the concentration of active sites. For the molecule `N=C(N)NCCC[C@H](N)C(=O)O` [L-arginine], the results for the Km (at D183N human arginase I [4]; in assay [5]) were 40 mM and 1.5 mM, respectively. Further, the catalytic constant (kcat) at D183N human arginase I [4] is 167 s⁻¹; in assay [5], 190 s⁻¹; on D183A human arginase I [6], 68 s⁻¹. Also, in assay [7], the substrate acceptance result is “does not accept L-arginine as a substrate”.
